Measured values from the supplement of paper PMC4628005.

Columns and labels:
Details in all cases: drug exposure time: 96 h
[1] = compound: CNC(=O)c1cc(Oc2ccc(NC(=O)Nc3ccc(Cl)c(C(F)(F)F)c3)cc2)ccn1 [Sorafenib]
Method: (§1)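 Breast cancer cell lines were grown in RPMI 1640 with 10% FBS on collagen I-coated 96-well plates and treated for 96 h (from 24 h after seeding) with 12 dilutions per drug, in triplicate. Growth was read by sulforhodamine B total-protein staining (absorbance 570 nm) relative to diluent control, and IC50 was calculated. The top dose was 1e-5 M for most drugs; Bortezomib went to 2e-5 M and Sirolimus and 17-AAG to 2e-6 M[…].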

[2] = compound: CS(=O)(=O)CCNCc1ccc(-c2ccc3ncnc(Nc4ccc(OCc5cccc(F)c5)c(Cl)c4)c3c2)o1 [Lapatinib]
Method: as §1

[3] = compound: COc1cc2ncnc(Nc3ccc(F)c(Cl)c3)c2cc1OCCCN1CCOCC1 [Gefitinib]
Method: as §1

[4] = compound: Nc1ncn([C@H]2C[C@H](O)[C@@H](CO)O2)c(=O)n1 [Decitabine]
Method: as §1

[5] = compound: N.N.[Cl][Pt][Cl] [Cisplatin]
Method: as §1

[6] = compound: CC/C(=C(\c1ccccc1)c1ccc(OCCN(C)C)cc1)c1ccccc1 [Tamoxifen]
Method: as §1

[7] = compound: COc1cc2/c(=N/c3ccc(Br)cc3F)nc[nH]c2cc1OCC1CCN(C)CC1 [Vandetanib]
Method: as §1

[8] = compound: C#Cc1cccc(Nc2ncnc3cc(OCCOC)c(OCCOC)cc23)c1 [Erlotinib]
Method: as §1

[9] = compound: O=C(/C=C/c1cccc(S(=O)(=O)Nc2ccccc2)c1)NO [Belinostat]
Method: as §1

[10] = compound: c1ccc2c(CCNc3ccc(Nc4ccncc4)cc3)c[nH]c2c1 [Serdemetan]
Method: as §1

[11] = compound: CCN(CC)CCNC(=O)c1c(C)[nH]c(/C=C2\C(=O)Nc3ccc(F)cc32)c1C [Sunitinib]
Method: as §1

[12] = compound: COc1ccc(C2=N[C@@H](c3ccc(Cl)cc3)[C@@H](c3ccc(Cl)cc3)N2C(=O)N2CCNC(=O)C2)c(OC(C)C)c1 [Nutlin-3]
Method: as §1

[13] = compound: O=C(CCCCCCC(=O)Nc1ccccc1)NO [Vorinostat]
Method: as §1

[14] = compound: Cn1cncc1[C@@](N)(c1ccc(Cl)cc1)c1ccc2c(c1)c(-c1cccc(Cl)c1)cc(=O)n2C [Tipifarnib]
Method: as §1

[15] = compound: Nc1ncn([C@@H]2O[C@H](CO)[C@@H](O)[C@H]2O)c(=O)n1 [Azacitidine]
Method: as §1

[16] = compound: O=C1NC(=O)[C@@H](c2cn3c4c(cccc24)CCC3)[C@@H]1c1c[nH]c2ccccc12 [ARQ197]
Method: as §1

[17] = compound: CC(=O)O[C@H]1C(=O)[C@@]2(C)[C@H]([C@H](OC(=O)c3ccccc3)[C@]3(O)C[C@H](OC(=O)[C@H](O)[C@@H](NC(=O)c4ccccc4)c4ccccc4)C(C)=C1C3(C)C)[C@]1(OC(C)=O)CO[C@@H]1C[C@@H]2O [Paclitaxel]
Method: as §1

[18] = compound: O=c1[nH]cc(F)c(=O)[nH]1 [5-Fluorouracil]
Method: as §1

[19] = compound: O=C1c2c(O)ccc(O)c2C(=O)c2c(NCCNCCO)ccc(NCCNCCO)c21 [Mitoxantrone]
Method: as §1

[20] = compound: Cc1nc(Nc2ncc(C(=O)Nc3c(C)cccc3Cl)s2)cc(N2CCN(CCO)CC2)n1 [Dasatinib]
Method: as §1

[21] = compound: CN(Cc1cnc2nc(N)nc(N)c2n1)c1ccc(C(=O)N[C@@H](CCC(=O)O)C(=O)O)cc1 [Methotrexate]
Method: as §1

[22] = compound: Cc1[nH]c2ccccc2c1CCNCc1ccc(/C=C/C(=O)NO)cc1 [Panobinostat]
Method: as §1

[23] = compound: Cn1cc(CNCC2CCN(c3ncc(C(=O)NO)cn3)CC2)c2ccccc21 [Quisinostat]
Method: as §1

[24] = compound: COc1cccc2c1C(=O)c1c(O)c3c(c(O)c1C2=O)C[C@@](O)(C(=O)CO)C[C@@H]3O[C@H]1C[C@H](N)[C@H](O)[C@H](C)O1 [Doxorubicin]
Method: as §1

[25] = compound: Cc1cc2c(F)c(Oc3ncnn4cc(OC[C@@H](C)O)c(C)c34)ccc2[nH]1 [Brivanib]
Method: as §1

[26] = compound: CC(C)(C)C[C@H]1N[C@@H](C(=O)NCC[C@H](O)CO)[C@H](c2cccc(Cl)c2)[C@@]12C(=O)Nc1cc(Cl)c(F)cc12 [MI-219]
Method: as §1

[27] = compound: CC(=O)O[C@@]12CO[C@@H]1C[C@H](O)[C@@]1(C)C(=O)[C@H](O)C3=C(C)[C@@H](OC(=O)[C@H](O)[C@@H](NC(=O)OC(C)(C)C)c4ccccc4)C[C@@](O)([C@@H](OC(=O)c4ccccc4)[C@H]21)C3(C)C [Docetaxel]
Method: as §1

[28] = compound: C=CCNC1=C2C[C@@H](C)C[C@H](OC)[C@H](O)[C@@H](C)/C=C(\C)[C@H](OC(N)=O)[C@@H](OC)/C=C\C=C(/C)C(=O)NC(=CC1=O)C2=O [17-AAG]
Method: (§2)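 Same SRB 96 h IC50 screen on breast cancer cell lines (RPMI 1640 + 10% FBS, collagen I-coated 96-well plates, triplicates, 12 dilutions), for drugs with a different dose range: Bortezomib up to 2e-5 M; Sirolimus and 17-AAG up to 2e-6 M. Sirolimus values at the 2e-6 M top dose are censored.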

[29] = compound: CO[C@H]1C[C@@H]2CC[C@@H](C)[C@@](O)(O2)C(=O)C(=O)N2CCCC[C@H]2C(=O)O[C@H]([C@H](C)C[C@@H]2CC[C@@H](O)[C@H](OC)C2)CC(=O)[C@H](C)/C=C(\C)[C@@H](O)[C@@H](OC)C(=O)[C@H](C)C[C@H](C)/C=C/C=C/C=C/1C [Sirolimus]
Method: as §2

[30] = compound: CC(C)C[C@H](NC(=O)[C@H](Cc1ccccc1)NC(=O)c1cnccn1)B(O)O [Bortezomib]
Method: as §2

Test System | IC50 (SRB growth assay) [1] | IC50 (SRB growth assay) [2] | IC50 (SRB growth assay) [3] | IC50 (SRB growth assay) [4] | IC50 (SRB growth assay) [5] | IC50 (SRB growth assay) [6] | IC50 (SRB growth assay) [7] | IC50 (SRB growth assay) [8] | IC50 (SRB growth assay) [9] | IC50 (SRB growth assay) [10] | IC50 (SRB growth assay) [11] | IC50 (SRB growth assay) [12] | IC50 (SRB growth assay) [13] | IC50 (SRB growth assay) [14] | IC50 (SRB growth assay) [15] | IC50 (SRB growth assay) [16] | IC50 (SRB growth assay) [17] | IC50 (SRB growth assay) [18] | IC50 (SRB growth assay) [19] | IC50 (SRB growth assay) [20] | IC50 (SRB growth assay) [21] | IC50 (SRB growth assay) [22] | IC50 (SRB growth assay) [23] | IC50 (SRB growth assay) [24] | IC50 (SRB growth assay) [25] | IC50 (SRB growth assay) [26] | IC50 (SRB growth assay) [27] | IC50 (SRB growth assay) [28] | IC50 (SRB growth assay) [29] | IC50 (SRB growth assay) [30]
EVSA-T | 2240 nM | 2530 nM | 7520 nM | 2250 nM | > 10000 nM | 4960 nM | 2020 nM | > 10000 nM | 85.1 nM | 1130 nM | 2200 nM | > 10000 nM | 380 nM | 18.5 nM | 3840 nM | 218 nM | 1.09 nM | 1740 nM | 2.68 nM | > 10000 nM | 6030 nM | 3.19 nM | 1.36 nM | 8.01 nM | > 10000 nM | > 10000 nM | 0.4 nM | 5.76 nM | 0.0536 nM | 2.74 nM
HCC 38 | 5260 nM | 5520 nM | > 10000 nM | 132 nM | > 10000 nM | > 10000 nM | 5540 nM | > 10000 nM | 250 nM | 443 nM | 9910 nM | > 10000 nM | 610 nM | 294 nM | 746 nM | 131 nM | 1.39 nM | 2790 nM | 1.89 nM | 115 nM | 12.3 nM | 6.57 nM | 3.31 nM | 5.51 nM | > 10000 nM | > 10000 nM | 0.51 nM | 72.2 nM | 0.166 nM | 5.22 nM
HCC 70 | 6250 nM | 3750 nM | 9360 nM | 2360 nM | > 10000 nM | > 10000 nM | 3960 nM | > 10000 nM | 356 nM | 1570 nM | 6810 nM | > 10000 nM | 781 nM | 85.1 nM | 2380 nM | 324 nM | 2.08 nM | 5360 nM | 74.3 nM | > 10000 nM | 30.1 nM | 8.26 nM | 5.48 nM | 40.6 nM | > 10000 nM | > 10000 nM | 0.539 nM | 37.3 nM | 0.222 nM | 2.84 nM
